Counter-ions that a name gives are not always drawn. Like-named read-outs stand apart in the source and are kept apart here.
Experiments:
[1] = tested on: human non-small cell lung cancer cell line A-549; test: In vitro cytotoxicity assay, Sulforhodamine B (SRB), A-549; assay type: cell-based; settings: Homo sapiens
[2] = tested on: human cervical carcinoma cell line Hela; test: In vitro cytotoxicity assay, Sulforhodamine B (SRB), Hela; assay type: cell-based; settings: Homo sapiens, HeLa
[3] = A549, 72 h, read-out: A549 (IC50, nM)
[4] = 72 h, read-out: Hela (IC50, nM)

CCCOCC1(O)[C@H](OC(C)=O)[C@]2(CC)C=CCN3CC[C@@]4(c5cc([C@@]6(C(=O)OC)C[C@@H]7C=C(CC)CN(CCc8c6[nH]c6ccccc86)C7)c(OC)cc5N(C)[C@@H]14)[C@@H]32 (stereo partly shown) [BM3]
IC50 [1, 3]: > 1000 nM | IC50 [2, 4]: > 1000 nM

CCC1=C[C@@H]2CN(CCc3c([nH]c4ccccc34)[C@@](C(=O)OC)(c3cc4c(cc3OC)N(C)[C@H]3[C@@]5(CNC(=O)O5)[C@H](OC(C)=O)[C@]5(CC)C=CCN6CC[C@]43[C@@H]65)C2)C1 [BM74]
IC50 [1, 3]: 710 nM | IC50 [2, 4]: 342 nM

CCC1=C[C@@H]2CN(CCc3c([nH]c4ccccc34)[C@@](C(=O)OC)(c3cc4c(cc3OC)N(C)[C@H]3C(O)(CNC(=O)c5ccc(C)cc5)[C@H](OC(C)=O)[C@]5(CC)C=CCN6CC[C@]43[C@@H]65)C2)C1 (stereo partly shown) [BM37]
IC50 [1, 3]: 20.7 nM | IC50 [2, 4]: 16 nM

CCC1=C[C@@H]2CN(CCc3c([nH]c4ccccc34)[C@@](C(=O)OC)(c3cc4c(cc3OC)N(C)[C@H]3C(O)(CNC(=O)c5ccccc5)[C@H](OC(C)=O)[C@]5(CC)C=CCN6CC[C@]43[C@@H]65)C2)C1 (stereo partly shown) [BM36]
IC50 [1, 3]: 87.4 nM | IC50 [2, 4]: 16.4 nM

CCC1=C[C@@H]2CN(CCc3c([nH]c4ccccc34)[C@@](C(=O)OC)(c3cc4c(cc3OC)N(C)[C@H]3C(O)(CNC(=O)OCCOC)[C@H](OC(C)=O)[C@]5(CC)C=CCN6CC[C@]43[C@@H]65)C2)C1 (stereo partly shown) [BM54]
IC50 [1, 3]: 632 nM | IC50 [2, 4]: 425 nM

CCC(=O)OCC1(O)[C@H](OC(C)=O)[C@]2(CC)C=CCN3CC[C@@]4(c5cc([C@@]6(C(=O)OC)C[C@@H]7C=C(CC)CN(CCc8c6[nH]c6ccccc86)C7)c(OC)cc5N(C)[C@@H]14)[C@@H]32 (stereo partly shown) [BM10]
IC50 [1, 3]: 710 nM | IC50 [2, 4]: 637 nM

CCC1=C[C@@H]2CN(CCc3c([nH]c4ccccc34)[C@@](C(=O)OC)(c3cc4c(cc3OC)N(C)[C@H]3C(O)(CNC(=O)OCc5ccc([N+](=O)[O-])cc5)[C@H](OC(C)=O)[C@]5(CC)C=CCN6CC[C@]43[C@@H]65)C2)C1 (stereo partly shown) [BM73]
IC50 [1, 3]: 780 nM | IC50 [2, 4]: 432 nM

CCC1=C[C@@H]2CN(CCc3c([nH]c4ccccc34)[C@@](C(=O)OC)(c3cc4c(cc3OC)N(C)[C@H]3C(O)(CNC(=O)OCc5ccc6c(c5)OCO6)[C@H](OC(C)=O)[C@]5(CC)C=CCN6CC[C@]43[C@@H]65)C2)C1 (stereo partly shown) [BM69]
IC50 [1, 3]: 230 nM | IC50 [2, 4]: 127 nM

CCC1=C[C@@H]2CN(CCc3c([nH]c4ccccc34)[C@@](C(=O)OC)(c3cc4c(cc3OC)N(C)[C@H]3C(O)(COC(=O)C(C)C)[C@H](OC(C)=O)[C@]5(CC)C=CCN6CC[C@]43[C@@H]65)C2)C1 (stereo partly shown) [BM11]
IC50 [1, 3]: > 1000 nM | IC50 [2, 4]: > 1000 nM

CCC1=C[C@@H]2CN(CCc3c([nH]c4ccccc34)[C@@](C(=O)OC)(c3cc4c(cc3OC)N(C)[C@H]3C(O)(CNC(=O)OCc5ccccc5OC)[C@H](OC(C)=O)[C@]5(CC)C=CCN6CC[C@]43[C@@H]65)C2)C1 (stereo partly shown) [BM67]
IC50 [1, 3]: 480 nM | IC50 [2, 4]: 176 nM

CCC1=C[C@@H]2CN(CCc3c([nH]c4ccccc34)[C@@](C(=O)OC)(c3cc4c(cc3OC)N(C)[C@H]3C(O)(CNC(=O)Oc5ccc(F)cc5)[C@H](OC(C)=O)[C@]5(CC)C=CCN6CC[C@]43[C@@H]65)C2)C1 (stereo partly shown) [BM62]
IC50 [1, 3]: > 1000 nM | IC50 [2, 4]: 377 nM

CCC1=C[C@@H]2CN(CCc3c([nH]c4ccccc34)[C@@](C(=O)OC)(c3cc4c(cc3OC)N(C)[C@H]3C(O)(CNC(=O)C(F)(F)F)[C@H](OC(C)=O)[C@]5(CC)C=CCN6CC[C@]43[C@@H]65)C2)C1 (stereo partly shown) [BM26]
IC50 [1, 3]: 56.3 nM | IC50 [2, 4]: 61.6 nM

CCC1=C[C@@H]2CN(CCc3c([nH]c4ccccc34)[C@@](C(=O)OC)(c3cc4c(cc3OC)N(C)[C@H]3C(O)(COC(=O)NCCC(C)C)[C@H](OC(C)=O)[C@]5(CC)C=CCN6CC[C@]43[C@@H]65)C2)C1 (stereo partly shown) [BM24]
IC50 [1, 3]: > 1000 nM | IC50 [2, 4]: > 1000 nM

CCC1=C[C@@H]2CN(CCc3c([nH]c4ccccc34)[C@@](C(=O)OC)(c3cc4c(cc3OC)N(C)[C@H]3C(O)(COC(C)=O)[C@H](OC(C)=O)[C@]5(CC)C=CCN6CC[C@]43C65)C2)C1 (stereo partly shown) [BM6]
IC50 [1, 3]: 124 nM | IC50 [2, 4]: 47.6 nM

CCC1=C[C@@H]2CN(CCc3c([nH]c4ccccc34)[C@@](C(=O)OC)(c3cc4c(cc3OC)N(C)[C@H]3C(O)(CNC(=O)CC(C)(C)C)[C@H](OC(C)=O)[C@]5(CC)C=CCN6CC[C@]43[C@@H]65)C2)C1 (stereo partly shown) [BM31]
IC50 [1, 3]: 395 nM | IC50 [2, 4]: 245 nM

CCCC(=O)NCC1(O)[C@H](OC(C)=O)[C@]2(CC)C=CCN3CC[C@@]4(c5cc([C@@]6(C(=O)OC)C[C@@H]7C=C(CC)CN(CCc8c6[nH]c6ccccc86)C7)c(OC)cc5N(C)[C@@H]14)[C@@H]32 (stereo partly shown) [BM29]
IC50 [1, 3]: 348 nM | IC50 [2, 4]: 126 nM

CCC1=C[C@@H]2CN(CCc3c([nH]c4ccccc34)[C@@](C(=O)OC)(c3cc4c(cc3OC)N(C)[C@H]3C(O)(CNC(=O)OC(C)(C)C)[C@H](OC(C)=O)[C@]5(CC)C=CCN6CC[C@]43[C@@H]65)C2)C1 (stereo partly shown) [BM51]
IC50 [1, 3]: 505 nM | IC50 [2, 4]: 172 nM

CCC1=C[C@@H]2CN(CCc3c([nH]c4ccccc34)[C@@](C(=O)OC)(c3cc4c(cc3OC)N(C)[C@H]3C(O)(CNC(=O)OCc5cccc(Cl)c5)[C@H](OC(C)=O)[C@]5(CC)C=CCN6CC[C@]43[C@@H]65)C2)C1 (stereo partly shown) [BM70]
IC50 [1, 3]: > 1000 nM | IC50 [2, 4]: > 1000 nM

CCCCOCC1(O)[C@H](OC(C)=O)[C@]2(CC)C=CCN3CC[C@@]4(c5cc([C@@]6(C(=O)OC)C[C@@H]7C=C(CC)CN(CCc8c6[nH]c6ccccc86)C7)c(OC)cc5N(C)[C@@H]14)[C@@H]32 (stereo partly shown) [BM4]
IC50 [1, 3]: > 1000 nM | IC50 [2, 4]: 295 nM

CC[C@]1(O)C[C@@H]2CN(CCc3c([nH]c4ccccc34)[C@@](C(=O)OC)(c3cc4c(cc3OC)N(C)[C@H]3[C@@](O)(C(=O)OC)[C@H](OC(C)=O)[C@]5(CC)C=CCN6CC[C@]43[C@@H]65)C2)C1 [Vinblastine sulfate, vinblastine sulfate, reference compound]
IC50 [1, 3]: 3.4 nM | IC50 [2, 4]: 2.5 nM

CCC1=C[C@@H]2CN(CCc3c([nH]c4ccccc34)[C@@](C(=O)OC)(c3cc4c(cc3OC)N(C)[C@H]3C(O)(CNC(=O)OC(C)C)[C@H](OC(C)=O)[C@]5(CC)C=CCN6CC[C@]43[C@@H]65)C2)C1 (stereo partly shown) [BM50]
IC50 [1, 3]: 162 nM | IC50 [2, 4]: 26.2 nM

CCC1=C[C@@H]2CN(CCc3c([nH]c4ccccc34)[C@@](C(=O)OC)(c3cc4c(cc3OC)N(C)[C@H]3C(O)(CNC(=O)C5CCC5)[C@H](OC(C)=O)[C@]5(CC)C=CCN6CC[C@]43[C@@H]65)C2)C1 (stereo partly shown) [BM35]
IC50 [1, 3]: 117 nM | IC50 [2, 4]: 45.2 nM

CCC1=C[C@@H]2CN(CCc3c([nH]c4ccccc34)[C@@](C(=O)OC)(c3cc4c(cc3OC)N(C)[C@H]3C(O)(CNC(=O)CC(C)C)[C@H](OC(C)=O)[C@]5(CC)C=CCN6CC[C@]43[C@@H]65)C2)C1 (stereo partly shown) [BM30]
IC50 [1, 3]: > 1000 nM | IC50 [2, 4]: > 1000 nM

CCC1=C[C@@H]2CN(CCc3c([nH]c4ccccc34)[C@@](C(=O)OC)(c3cc4c(cc3OC)N(C)[C@H]3C(O)(COC(=O)NCC(C)C)[C@H](OC(C)=O)[C@]5(CC)C=CCN6CC[C@]43C65)C2)C1 (stereo partly shown) [BM22]
IC50 [1, 3]: > 1000 nM | IC50 [2, 4]: > 1000 nM

CCC1=C[C@@H]2CN(CCc3c([nH]c4ccccc34)[C@@](C(=O)OC)(c3cc4c(cc3OC)N(C)[C@H]3C(O)(CNC(=O)c5ccc(OC)cc5)[C@H](OC(C)=O)[C@]5(CC)C=CCN6CC[C@]43C65)C2)C1 (stereo partly shown) [BM45]
IC50 [1, 3]: 578 nM | IC50 [2, 4]: 135 nM

CCC1=C[C@@H]2CN(CCc3c([nH]c4ccccc34)[C@@](C(=O)OC)(c3cc4c(cc3OC)N(C)[C@H]3C(O)(CNC(=O)Cc5ccccc5)[C@H](OC(C)=O)[C@]5(CC)C=CCN6CC[C@]43C65)C2)C1 (stereo partly shown) [BM46]
IC50 [1, 3]: 174 nM | IC50 [2, 4]: 22.9 nM

CCCCCOC(=O)NCC1(O)[C@H](OC(C)=O)[C@]2(CC)C=CCN3CC[C@@]4(c5cc([C@@]6(C(=O)OC)C[C@@H]7C=C(CC)CN(CCc8c6[nH]c6ccccc86)C7)c(OC)cc5N(C)[C@@H]14)[C@@H]32 (stereo partly shown) [BM56]
IC50 [1, 3]: 332 nM | IC50 [2, 4]: 78.4 nM

CCC1=C[C@@H]2CN(CCc3c([nH]c4ccccc34)[C@@](C(=O)OC)(c3cc4c(cc3OC)N(C)[C@H]3C(O)(CNC(=O)C(C)C)[C@H](OC(C)=O)[C@]5(CC)C=CCN6CC[C@]43[C@@H]65)C2)C1 (stereo partly shown) [BM28]
IC50 [1, 3]: 101 nM | IC50 [2, 4]: 75.8 nM

CCC1=C[C@@H]2CN(CCc3c([nH]c4ccccc34)[C@@](C(=O)OC)(c3cc4c(cc3OC)N(C)[C@H]3C(O)(COC(=O)C(C)(C)C)[C@H](OC(C)=O)[C@]5(CC)C=CCN6CC[C@]43C65)C2)C1 (stereo partly shown) [BM12]
IC50 [1, 3]: 576 nM | IC50 [2, 4]: 95.9 nM

CCC1=C[C@@H]2CN(CCc3c([nH]c4ccccc34)[C@@](C(=O)OC)(c3cc4c(cc3OC)N(C)[C@H]3C(O)(CNC(=O)OCc5ccccc5[N+](=O)[O-])[C@H](OC(C)=O)[C@]5(CC)C=CCN6CC[C@]43[C@@H]65)C2)C1 (stereo partly shown) [BM72]
IC50 [1, 3]: 830 nM | IC50 [2, 4]: 561 nM

CCC1=C[C@@H]2CN(CCc3c([nH]c4ccccc34)[C@@](C(=O)OC)(c3cc4c(cc3OC)N(C)[C@H]3C(O)(CNC(=O)Oc5ccc(OC)cc5)[C@H](OC(C)=O)[C@]5(CC)C=CCN6CC[C@]43[C@@H]65)C2)C1 (stereo partly shown) [BM65]
IC50 [1, 3]: 344 nM | IC50 [2, 4]: 159 nM

CCC1=C[C@@H]2CN(CCc3c([nH]c4ccccc34)[C@@](C(=O)OC)(c3cc4c(cc3OC)N(C)[C@H]3C(O)(CNC(=O)Oc5ccccc5)[C@H](OC(C)=O)[C@]5(CC)C=CCN6CC[C@]43[C@@H]65)C2)C1 (stereo partly shown) [BM61]
IC50 [1, 3]: 978 nM | IC50 [2, 4]: 683 nM

CC[C@]12C=CCN3CC[C@@]4(c5cc([C@@]6(C(=O)OC)C[C@@H]7C[C@@H](C(C)(F)F)CN(CCc8c6[nH]c6ccccc86)C7)c(OC)cc5N(C)[C@H]4C(O)(CNC(C)=O)[C@@H]1OC(C)=O)[C@@H]32 (stereo partly shown) [BM77]
IC50 [1, 3]: > 1000 nM | IC50 [2, 4]: > 1000 nM

CCC1=C[C@@H]2CN(CCc3c([nH]c4ccccc34)[C@@](C(=O)OC)(c3cc4c(cc3OC)N(C)[C@H]3C(O)(CNC(=O)c5ccncc5)[C@H](OC(C)=O)[C@]5(CC)C=CCN6CC[C@]43C65)C2)C1 (stereo partly shown) [BM42]
IC50 [1, 3]: 78.3 nM | IC50 [2, 4]: 22.4 nM

CC[C@]1(O)C[C@H]2CN(CCc3c([nH]c4ccccc34)[C@@](C(=O)OC)(c3cc4c(cc3OC)N(C=O)[C@H]3[C@@](O)(C(=O)OC)[C@H](OC(C)=O)[C@]5(CC)C=CCN6CC[C@]43[C@@H]65)C2)C1 [Vincristine sufate, reference compound]
IC50 ([1]; A549, SRB assay, 72 hours incubation, ditartrate of all compounds used, read-out: A549 (IC50)): 25.1 nM | IC50 ([2]; SRB assay, 72 hours incubation, ditartrate of all compounds used, read-out: Hela (IC50)): 11.3 nM
